Several values for one entry are separate records, joined by “and”; a condition that tells them apart may be missing. Equal entries are not always repeated. Inconclusive results and toxic doses are left out.
Tested on: BDF1 mice, P388 leukemia ip, median survival T/C
Experiment: NCI In Vivo Anticancer Drug Screen. Data for tumor model P388 Leukemia (intraperitoneal) in B6D2F1 (BDF1) mice
Details: endpoint: median survival time, higher = longer survival
How it was run: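 Reported as T/C, where T is the survival measurement in dosed animals and C the same measurement in vehicle controls.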

[1] = dose: 0.18 mg/kg/injection, schedule: Q01DX009 (ip), vehicle: saline with Tween-80
[2] = dose: 100.0 mg/kg/injection, schedule: Q01DX009 (ip), vehicle: saline
[3] = dose: 200.0 mg/kg/injection, schedule: Q01DX009 (ip), vehicle: saline
[4] = dose: 400.0 mg/kg/injection, schedule: Q01DX009 (ip), vehicle: saline

## O=CC1CO1 (centres undefined)
dose: 33.0 mg/kg/injection, schedule: Q01DX009 (ip), vehicle: saline sonified
  T/C: 150 % of control
dose: 33.0 mg/kg/injection, schedule: Q01DX009 (ip), vehicle: saline
  T/C: 116 % of control

## COc1cc2c(c(OC)c1OC)-c1ccc(OC)c(=O)cc1[C@@H](NC(=O)CF)CC2
dose: 0.09 mg/kg/injection, schedule: Q01DX009 (ip), vehicle: saline with Tween-80
  T/C: 187 % of control
dose: 0.09 mg/kg/injection, schedule: Q01DX009 (ip), vehicle: saline
  T/C: 188 % of control
[1]
  T/C: 232 % of control
dose: 0.18 mg/kg/injection, schedule: Q01DX009 (ip), vehicle: saline
  T/C: 257 % of control
dose: 0.37 mg/kg/injection, schedule: Q01DX009 (ip), vehicle: saline
  T/C: 103 % of control
dose: 46.2 micrograms/kg/injection, schedule: Q01DX009 (ip), vehicle: saline with Tween-80
  T/C: 158 % of control
dose: 185.0 micrograms/kg/injection, schedule: Q01DX009 (ip), vehicle: saline with Tween-80
  T/C: 89 % of control
dose: 370.0 micrograms/kg/injection, schedule: Q01DX009 (ip), vehicle: saline with Tween-80
  T/C: 247 % of control

## CNC1C(O)C(OC2C(N)CC(N)C(OC3OC(CN)C(O)C(O)C3O)C2O)OCC1(C)O (centres undefined)
[2]
  T/C: 100 % of control
[3]
  T/C: 91 % of control
[4]
  T/C: 108 % of control

## CCCCCCCCC(=O)NCc1ccc(OC)cc1
dose: 100.0 mg/kg/injection, schedule: Q01DX001 (ip), vehicle: other
  T/C: 91 % of control
dose: 200.0 mg/kg/injection, schedule: Q01DX001 (ip), vehicle: other
  T/C: 100 % of control
dose: 400.0 mg/kg/injection, schedule: Q01DX001 (ip), vehicle: other
  T/C: 91 % of control

## CC(C)CC(=O)CC1(C)CCC(c2ccoc2)O1 (centres undefined)
dose: 25.0 mg/kg/injection, schedule: Q01DX009 (ip), vehicle: saline with Tween-80
  T/C: 96 % of control and 100 % of control
dose: 50.0 mg/kg/injection, schedule: Q01DX009 (ip), vehicle: saline with Tween-80
  T/C: 97 % of control and 105 % of control
dose: 100.0 mg/kg/injection, schedule: Q01DX009 (ip), vehicle: saline with Tween-80
  T/C: 103 % of control and 110 % of control
dose: 200.0 mg/kg/injection, schedule: Q01DX009 (ip), vehicle: saline with Tween-80
  T/C: 117 % of control

## O=C(OCCO)c1ccccc1O
[2]
  T/C: 107 % of control
[3]
  T/C: 115 % of control
[4]
  T/C: 100 % of control

## NC(=O)c1cn(C2OC(CO)C(O)C2O)c2ncnc(N)c12 (centres undefined)
[1]
  T/C: 183 % of control
dose: 0.25 mg/kg/injection, schedule: Q01DX010 (ip), vehicle: water
  T/C: 181 % of control
dose: 0.37 mg/kg/injection, schedule: Q01DX009 (ip), vehicle: saline with Tween-80
  T/C: 162 % of control
dose: 0.5 mg/kg/injection, schedule: Q01DX010 (ip), vehicle: water
  T/C: 190 % of control
dose: 0.5 mg/kg/injection, schedule: Q04DX003 (ip), vehicle: saline
  T/C: 163 % of control
dose: 0.75 mg/kg/injection, schedule: Q01DX009 (ip), vehicle: saline with Tween-80
  T/C: 187 % of control and 200 % of control
dose: 0.75 mg/kg/injection, schedule: Q01DX010 (ip), vehicle: water
  T/C: 177 % of control
dose: 1.5 mg/kg/injection, schedule: Q01DX009 (ip), vehicle: saline with Tween-80
  T/C: 195 % of control
dose: 1.5 mg/kg/injection, schedule: Q04DX003 (ip), vehicle: saline
  T/C: 154 % of control
dose: 2.0 mg/kg/injection, schedule: Q04DX003 (ip), vehicle: saline with Tween-80
  T/C: 122 % of control
dose: 3.0 mg/kg/injection, schedule: Q04DX003 (ip), vehicle: saline with Tween-80
  T/C: 195 % of control
dose: 3.0 mg/kg/injection, schedule: Q04DX003 (ip), vehicle: saline
  T/C: 195 % of control
dose: 6.0 mg/kg/injection, schedule: Q04DX003 (ip), vehicle: saline with Tween-80
  T/C: 190 % of control
dose: 6.0 mg/kg/injection, schedule: Q04DX003 (ip), vehicle: saline
  T/C: 90 % of control

## COC(=O)CCCCCCCCC(C)c1ccccc1 (centres undefined)
dose: 264.0 mg/kg/injection, schedule: Q01DX009 (ip), vehicle: saline
  T/C: 110 % of control
[4]
  T/C: 110 % of control

Source: PubChem BioAssay AID328 (DTP/NCI, 2004)
